Marks after values point to notes of the source that are not given here.
How the values were obtained:
Listeria monocytogenes = Listeria monocytogenes growth in inoculated raw minced beef under modified atmosphere; format: cell-based; details: for Measured effect on Listeria monocytogenes growth: [(log(CFU/mL) in meat treated with plant extracts) − (log(CFU/mL) control meat (without treatment))]: rosemary/hesperidin series added at 1.18% to minced beef, 8° C., 70% O2 and 30% CO2; for Expected effect on Listeria monocytogenes growth (difference of log(CFU/mL) to control meat): rosemary/hesperidin series, calculated from effects of the single extracts
Protocol: In the course of the work leading to the present method and composition, mixtures of rosemary extract and of hesperidin or of Punica extract, in a number of varying concentration ratios were tested for antilisterial effectiveness using the classical microbiological methods. Bacterial enumeration in all here studied samples was performed on the Aloa medium according to the standardized method (NF EN ISO 11-290). The growth of Listeria monocytogenes was evaluated in meat without any antilisterial agent and without any plant extract (control). The data of listerial growth in a control meat are represented in FIG. 2. […] Following the meat manufacture, a batch of meat was sampled straight after the mincing process and transported in refrigerated conditions to the laboratory. […] Any further supplementation to the meat was conducted in such a laboratory. […] Plant extracts were in powder form and were added as such to the meat. To keep them as dry powders, plant extracts were supplemented with maltodextrin prior to drying process. […] Control meat pieces, without extract treatment, followed the same procedure. […] Packaged meat was stored in the dark for a stated amount of time. A series of experiments involving rosemary and hesperidin extracts, rosemary and Punica extracts, typical antilisterial compounds (Sodium lactate or Sodium acetate) and untreated control were conducted. Mixtures or alone extracts of rosemary and of hesperidin were added at 1.18% to the meat. […] Such analyses were conducted on the 0th, 6th and 9th day of storage. The growth of Listeria monocytogenes was evaluated in meat in refrigerated conditions for each extract or compound and for their combinations. […] Logarithmic values of Listerial growth (log CFU/mL) were calculated for each experiment and treatment. Differences of logarithmic values of Listerial growth (log CFU/mL) between the meat treated with plant extracts and the untreated control were calculated to yield a final result. The more negative value was obtained, the higher was the antilisterial effect of the extract or of the combination of extracts. […] (Guide pour la validation de méthodes d'essais microbiologiques et l'évaluation de leur incertitude de mesure dans les domaines de la microbiologie […]'environnement), Schweizerische Eidgenossenschaft, Confédération suisse, Département […]'économie, de la formation et de la recherche DEFR, Document No. 328, April 2013, Rev. 03).

Listeria = details: pure form; cited from earlier work
[1] = stored in cold; applied at 300 ppm; cited from earlier work

COc1ccc([C@@H]2CC(=O)c3c(O)cc(O[C@@H]4O[C@H](CO[C@@H]5O[C@@H](C)[C@H](O)[C@@H](O)[C@H]5O)[C@@H](O)[C@H](O)[C@H]4O)cc3O2)cc1O [Hesperidin]
Extract proportion in combination that provide antilisterial response in meat (Listeria monocytogenes; surface response methodology (FIG. 4), response difference to control <0.5 log(CFU/mL) as printed, total added to meat not above 1.18%): 0.5-48.0%

COc1ccc([C@@H]2CC(=O)c3c(O)cc(O[C@@H]4O[C@H](CO)[C@@H](O)[C@H](O)[C@H]4O[C@@H]4O[C@@H](C)[C@H](O)[C@@H](O)[C@H]4O)cc3O2)cc1O [neohesperidin]
Effect on Listerial growth in vitro (Listeria): no effect

hesperidin [0.5H]
Measured effect on Listeria monocytogenes growth: [(log(CFU/mL) in meat treated with plant extracts) − (log(CFU/mL) control meat (without treatment))] (Listeria monocytogenes; after 6 days of growth): −0.37* log(CFU/mL)
Measured effect on Listeria monocytogenes growth: [(log(CFU/mL) in meat treated with plant extracts) − (log(CFU/mL) control meat (without treatment))] (Listeria monocytogenes; after 9 days of growth): −0.71* log(CFU/mL)
Expected effect on Listeria monocytogenes growth (difference of log(CFU/mL) to control meat) (Listeria monocytogenes; after 6 days of growth): −0.045 log(CFU/mL)
Expected effect on Listeria monocytogenes growth (difference of log(CFU/mL) to control meat) (Listeria monocytogenes; after 9 days of growth): −0.32 log(CFU/mL)

O=c1oc2c(O)c(O)cc3c(=O)oc4c(O)c(O)cc1c4c23 [ellagic acid]
Antimicrobial effect on raw beef MAP meat [1]: no antimicrobial effect

hesperidin
Measured effect on Listeria monocytogenes growth: [(log(CFU/mL) in meat treated with plant extracts) − (log(CFU/mL) control meat (without treatment))] (Listeria monocytogenes; after 6 days of growth): −0.09 log(CFU/mL)
Measured effect on Listeria monocytogenes growth: [(log(CFU/mL) in meat treated with plant extracts) − (log(CFU/mL) control meat (without treatment))] (Listeria monocytogenes; after 9 days of growth): −0.64 log(CFU/mL)
